According to ChEMBL document CHEMBL3507680, “University of Dundee, Gates Library screen for HepG2 cell viability”:

Assay: Human HepG2 cell viability assay in 384 well format
Assay type: toxicity, cell-based
Parameters: dose 125 nL, time 70.5 hour; cytotoxicity at 70.5 h: concentration not given beside the values
Settings: HepG2 cells, read-out: Inhibition

Row | SMILES | cytotoxicity at 70.5 h [%]
1 | Cc1ccc(CN2CC[C@@H](NC(=O)c3cccnc3)[C@H](O)C2)s1 | -10.7
2 | O=C(c1coc(CN2CCN(c3ccccc3F)CC2)n1)N1CC=CC1 | 15.2
3 | CSCc1cccc(S(=O)(=O)N2CCCC2)c1 | -6.64
4 | Cn1nnc2c1C(COCC1CC1)CN(Cc1ccoc1)C2 (centres undefined) | -9.19
5 | O=C(NCc1ccco1)[C@H]1C[C@H]2OCC[C@H]2N(C(=O)c2ccncc2)C1 | -12.4
6 | Cc1ccc(N2CCC3(CCN(Cc4csc(C)n4)C3=O)C2)nn1 (centres undefined) | -3.25
7 | Cc1cc(NCc2ccccc2)nc2[nH]nc(N)c12 | -12.7
8 | NCC1[C@H]2CN(CCc3ccccc3)C[C@@H]12 (some centres undefined) | 43.3
9 | CCc1ncc(C(=O)N2CCC(O)(CN3CCOCC3)C(C)(C)C2)cn1 (centres undefined) | -0.715
10 | Cc1ccc(N2C[C@@H]3OCCN(Cc4c(C)noc4C)[C@@H]3C2)nn1 | -1.63
11 | O=C(c1nccc2ccccc12)N(Cc1ccco1)CC1CCCO1 (centres undefined) | 9.69
12 | O=C([C@H]1CCCO1)N1CCc2ncnc(C3CC3)c2CC1 | -11.8
13 | OCC1CCCN(Cc2c(C3CCCC3)[nH]c3ncccc23)C1 (centres undefined) | 13.9
14 | CC(C)C(=O)NCCc1nc(-c2ccncc2)n[nH]1 | -2.41
15 | CN(C)C(=O)Cc1ccccc1NCc1nc(Cc2ccccc2)no1 | -0.0229
16 | CCOC(=O)c1nnc2ccccc2c1N1CCOC(C)(C)C1 | 16.1
17 | COc1cc(C(=O)NS(=O)(=O)c2cncc(Br)c2)cc(OC)c1C | -8.02
18 | Cc1cc(C)n(C2CN(Cc3noc(-c4ccccc4)n3)C2)n1 | -4.76
19 | CSCC(=O)N1C[C@H]2CC[C@@H]1CN(C1Cc3ccccc3C1)C2 | -9.76
20 | COCCN1CCN(CC(=O)N(C)Cc2cccc(F)c2)CC1C (centres undefined) | 0.133
21 | CNC(=O)c1cccc(CNC(C)c2cc(C)ccc2OC(F)F)c1 (centres undefined) | -7.54
22 | CS(=O)(=O)c1cccc(C(=O)NCCCN2CCc3ccccc3C2)c1 | 19.1
23 | COc1ccc(-c2cnc(N(C)C)nc2C2CNCCO2)cc1 (centres undefined) | -4.32

Row | SMILES | cytotoxicity at 70.5 h [%]
24 | CN(c1ncccc1CNS(=O)(=O)N1CCOCC1)C1CCCCC1 | 18.5
25 | O=C([C@@H]1CCCO1)N1CCC(Cn2cc(-c3ccsc3)nn2)CC1 | -7.52
26 | c1ccc(Cc2noc(CN3CCCC3Cn3cccn3)n2)cc1 (centres undefined) | -7.45
27 | CCc1c(NCc2ccncc2)cnn1CC(C)C | -5.95
28 | CC(C(=O)Nc1ccc2ccccc2c1)N1CCC(n2ccnc2)CC1 (centres undefined) | -4.02
29 | C[C@@H]1CN(CC(=O)NCc2ccccn2)C[C@]1(C)O | -1.62
30 | Cc1ccc(OCC(C)NS(=O)(=O)Cc2ccon2)cc1 (centres undefined) | -9.91
31 | CC(=O)NCCCNC(=O)N1CCN(c2cc(F)ccc2F)CC1 | -6.3
32 | Cc1ccn(CCNc2ncnc3c2CCN(Cc2ncc[nH]2)CC3)n1 | -8.65
33 | C[S+]([O-])CCNCc1ccc(OCc2cscn2)cc1 (centres undefined) | 1.77
34 | CCOCCCNC(=O)NC(C)c1ccc(-n2cncn2)cc1 (centres undefined) | -5.55
35 | CC(=O)N1CCCC2(CCN(c3nncs3)C2)C1 (centres undefined) | -4.07
36 | CC(C)Cc1noc(CN2CCN(C(=O)c3ccco3)CC2)n1 | -9.38
37 | Cc1ccc(-c2cc(C(=O)NC(C)C(=O)N3CCCCC3)on2)cc1 (centres undefined) | 5.48
38 | COc1cc(C(=O)NCCCO)cc2occc12 | -9.45
39 | CC(Cn1ccnc1)NC(=O)Nc1ccccn1 (centres undefined) | 10.5
40 | CCc1n[nH]c(C2CN(C(=O)CCOCC(F)(F)F)CCO2)n1 (centres undefined) | -12.9
41 | CN(Cc1cccnc1)C(=O)NC1CCN(Cc2ccccn2)CC1 | 0.886
42 | Cc1ccc2nc(CN(C)Cc3[nH]nc4c3CCC4)[nH]c2c1C | 6.49
43 | CN(C)Cc1nnc(C2CCN(C(=O)CCc3cccs3)CC2)n1C | -8.36
44 | COc1cccc(-c2noc3c2CN(c2ncnc4c2CCC4)CC3)c1 | -6.28
45 | Cn1ncc2c1NC(=O)CC2c1ccccc1Br (centres undefined) | -12.4
46 | O=C(Cn1ccc2ccc(Cl)cc21)NCc1ccc(C(=O)O)cc1 | -2.47

Row | SMILES | cytotoxicity at 70.5 h [%]
47 | Cc1ccc(-c2noc([C@@H]3C[C@H](NC(=O)NC(C)C)CN3C)n2)cc1 | -7.56
48 | Cc1cccc(C)c1OC1CN(C(=O)C2CC(=O)N(C(C)(C)C)C2)C1 (centres undefined) | 18.1
49 | Cc1cc(CNC(=O)CC2CCN(C(C)C)CC2)n(C)n1 | 16.3
50 | CCS(=O)(=O)N1CCC2(CCCN(c3ncc(F)cn3)C2)C1 (centres undefined) | -6.13
51 | CC1CN(CC(=O)Nc2nncs2)CCN1c1nccs1 (centres undefined) | -9.27
52 | Cn1cc(CNCCC(=O)NCc2ccccc2)c(-c2cccnc2)n1 | 2.26
53 | Cc1ccsc1CN(C)C(=O)c1cc2c([nH]c1=O)CCCC2=O | -7.76
54 | O=C(CN1C[C@H]2C[C@H](OCc3ccccc3)C[C@H]2C1)N1CCOCC1 | -4.18
55 | Fc1ccc([C@@H]2COC[C@H]2NCc2cccc(F)c2)cc1 | -3.65
56 | CCNC(=O)CN(CC)Cc1nc2c(F)cccc2n1CC | 21.7
57 | Cc1cnn(C2CCCN(C(=O)CCCOc3ccccc3F)C2)c1 (centres undefined) | -5.78
58 | O=C(CN1CCC(c2cccc(F)c2)C1)NCC(F)(F)F (centres undefined) | 26.9
59 | OCC1CCCN1c1cc(NCc2cc3ccccc3o2)ncn1 (centres undefined) | -18.3
60 | CN(C)c1ccc(CNC(=O)c2ccc(Cl)cc2F)cc1 | 3.13
61 | CCOc1ccc(C(=O)Nc2c(C)nc3ccccn3c2=O)cc1 | 19.8
62 | O=C(NCCc1cccs1)N1CCC[C@H]1CO | -6.62
63 | Cc1noc(C)c1S(=O)(=O)N1CCC(Oc2cccnn2)CC1 | -0.269
64 | COc1cc(CNC2CCCN(c3ncccn3)C2)cc2c1OCO2 (centres undefined) | -5.86
65 | CCn1cc2c(n1)C(COC)CN(Cc1ccccn1)C2 (centres undefined) | 29.7
66 | CN1CCN(C(=O)N2CCCC2)Cc2cccnc21 | -6.35
67 | CCC1COCCN1C(=O)CNC(=O)c1ccsc1 (centres undefined) | -8.2
68 | Cc1cc(C2CCCN(C(=O)c3c(C)nn4cccnc34)C2)n[nH]1 (centres undefined) | -3.82
69 | CCCNC(=O)NCc1cccnc1OC | -5.64

Row | SMILES | cytotoxicity at 70.5 h [%]
70 | Cc1nc(C)c(CN2CCC(N(C)Cc3noc(C4CC4)n3)C2)s1 (centres undefined) | 21.6
71 | O=C(NCC(=O)N1CCCC1Cc1cccc(F)c1)c1ccccn1 (centres undefined) | -9.78
72 | c1cc(CNCC2CNc3ccnn3C2)cc(Cn2cccn2)c1 (centres undefined) | 4.46
73 | CC(C)S(=O)(=O)CC(=O)NCC(Cc1ccc(F)cc1)C(N)=O (centres undefined) | 1.75
74 | C=Cc1cccc(CN2C[C@@H](CN(C)CC)[C@@H](CO)C2)c1 | 3.14
75 | Cc1ccc(N2CCCC3(COCCN(c4nccs4)C3)C2)nn1 (centres undefined) | -9.95
76 | CS(=O)(=O)c1ccc(NCc2ccccc2)cn1 | -2.92
77 | CN(C)C(=O)CN1C[C@@H]2OCCN(c3ncc(F)cn3)[C@@H]2C1 | 0.597
78 | COC1CC2(CCN(Cc3nccn3C)CC2)C1 | -5.43
79 | Cc1nc(C)n(CC2CCCN2CC(=O)Nc2ccnn2C(C)C)n1 (centres undefined) | 17
80 | COc1cccc(CNc2cnn(CC(F)F)c2)c1 | 3.29
81 | Cc1cc2cccc(NC(=O)N3CC[C@@H]4CC[C@H](C3)N4C)c2o1 | -5.41
82 | CC(=O)Nc1nc(C2CCN(C(=O)c3cncs3)CC2)cs1 | 11.2
83 | CC(C)C(=O)N1CCN(Cc2ccccn2)CC2(CC(=O)N(C)C2)C1 (centres undefined) | -9.37
84 | CC(c1cn2ccsc2n1)N1Cc2ncccc2C1=O (centres undefined) | -4.52
85 | Cn1ccc(C(=O)N2CCC(Cc3cnc4[nH]ccc4c3)CC2)n1 | -5.86
86 | CC(C)CN1CCN(C(=O)CCn2cccn2)CC1 | -1.87
87 | CN1CCOC(CN(C(=O)CCCn2cccn2)c2nccs2)C1 (centres undefined) | -1.25
88 | CCN(Cc1cnn(CC)c1)C(=O)Cn1c(=O)ccc2ccccc21 | -5.92
89 | O=C(NC1CC1)c1cccc(S(=O)(=O)NCCc2nc(C3CC3)no2)c1 | -6.39
90 | CC(C(=O)Nc1cnn(CC(N)=O)c1)c1ccc(Cl)s1 (centres undefined) | -4.91
91 | O=C(Cn1nnn(-c2cccs2)c1=O)N(CC1CCOC1)C1CC1 (centres undefined) | -9.03
92 | COc1ccccc1C1Cn2c(C)cnc2CN1Cc1c[nH]nc1C (centres undefined) | -12.2

Row | SMILES | cytotoxicity at 70.5 h [%]
93 | CS(=O)(=O)NCCCN1CCCC1c1cccc(Br)c1 (centres undefined) | -9.99
94 | O=C(c1cc[nH]n1)N(Cc1cccc(O)c1)CC1CC1 | -7.41
95 | CC(C)OCCCNC(=O)Nc1cccc2ncccc12 | -2.69
96 | COC(=O)c1ccc(N(C)C2CCC2)nn1 | -5.28
97 | COc1ccccc1CC1CCCN(C(=O)c2cc[nH]n2)C1 (centres undefined) | -6.57
98 | Cc1ccsc1[C@@H]1CCN(C(=O)CCc2nc3ccccc3[nH]2)C[C@H]1O | 5.42
99 | C=C(C)COc1cccc(C(=O)N(CC)Cc2noc(C)n2)c1 | -3.04
100 | CC1CCN(C(=O)C2CCN(c3ccc(Cl)cc3C#N)CC2)CC1 | -6.44
101 | Nc1cc2c(nn1)CCN(C(=O)c1cccc3c1OCO3)C2 | 2.4
102 | Cn1cc(C(=O)OC2CN(c3nc4c(C(F)(F)F)cccc4s3)C2)nn1 | 1.02
103 | Cn1cc(CN2CCc3nc4ccccc4c(=O)n3CC2)cn1 | -1.93
104 | Cc1ccc(C(=O)NCCNC(=O)N(C)C(C)c2ccccn2)cc1 (centres undefined) | -2.96
105 | Cc1nc(NS(=O)(=O)c2ccc(C)c(Br)c2)no1 | -12.1
106 | Cn1c(C(F)(F)F)nn(CCNC(=O)CSCc2ccccc2)c1=O | 0.995
107 | CCCn1nccc1C(=O)N1CCN(C2CCc3ccccc3C2)CC1 (centres undefined) | -7.89
108 | CSCC1CCN(C(=O)Cn2ncc(N3CCCCC3)cc2=O)CC1 | -16.3
109 | CNC(=O)C1(Cc2cc(C(C)C)no2)CCN(Cc2cccnc2)C1 (centres undefined) | -5.78
110 | Cc1cccc(C(=O)N2C[C@@H](OCc3ccncc3)[C@@H]3OCCC[C@@H]32)n1 | -12.5
111 | CCc1cccc(OCCn2cccc(C#N)c2=O)c1 | -8.55
112 | COC(=O)c1ccc(CN2CCC(c3noc(C)n3)CC2)s1 | -8.54
113 | CCc1nc(CN2CCCC(NCc3ncc(C(C)(C)C)o3)C2)no1 (centres undefined) | 8.8
114 | Cc1cc(-n2c(C)cn(CN(C)C3CCS(=O)(=O)C3)c2=O)no1 (centres undefined) | -14.6
